Source: patent publication US11780851B2, “LRRK2 inhibitors” (H. Lundbeck A/S, priority 2021, dated 2023)
Entries after “also recorded” stand apart in the source; their conditions may differ. Read-outs that look alike come from different tables or passages of the source.

How the values were obtained:
[1] = test system: pooled donor, cryopreserved hepatocytes; experiment: Hepatocyte intrinsic clearance assay; type: in vitro ADME, human; details: 0.1 μM, 2 h at 37° C., 1×10^6 hepatocytes/mL; * measured on 3 separate occasions, ** on a single occasion
Protocol: (§1) Test compounds (final concentration 0.1 μM, 0.05% organic) were incubated for 2 h at 37° C., with shaking, in supplemented Leibovitz L-15 media (pH7.4) containing commercially sourced, pooled donor, cryopreserved hepatocytes (final concentration 1×10^6 hepatocytes/m L). The CLint reactions (350 μL) were initiated by addition of test compound. Aliquots (25 μL) were taken at 1, 5, 10, 15, 30, 60, 90 and 120 minutes and then protein crashed with ice-cold acetonitrile containing internal standard (150 μL) then centrifuged (1960 g for 20 minutes at 4° C.). Supernatant was diluted (1:4) with deionized water then analyzed by liquid chromatography (LC)-tandem mass spectrometry (MS/MS). The intrinsic clearances (CLint) were calculated from the slope (k) of the linear regressions of percentages of compound remaining in incubation against incubation time, according to equations 2 and 3.

LRRK2 WT = biological target: T1, LRRK2 WT (Homo sapiens, UniProt Q5S007); experiment: LRRK2 wild-type kinase activity assay (LanthaScreen TR-FRET); type: biochemical; details: 1 nM LRRK2 WT, 1.3 mM ATP, 3.5 h at 30° C.; n≥2 tests
T1 construct: comprises residue 970 to 2527 of the full length human wild-type LRRK2 kinase; purchased Invitrogen (Life Technologies Corporation)
Procedure, shortened: (§2)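 TR-FRET measured phosphorylation of fluorescein-ERM LRRKtide by human LRRK2 residues 970–2527, wild-type or G2019S, detected with a terbium anti-phospho-LRRKtide antibody. The 520/495 nm ratio was normalized to uninhibited and inhibitor controls. IC50 came from a Hill fit, log-averaged over independent experiments.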

LRRK2 G2019S = biological target: T2, LRRK2 G2019S (Homo sapiens, UniProt Q5S007, G2019S); experiment: LRRK2 G2019S kinase activity assay (LanthaScreen TR-FRET); type: biochemical; details: 250 pM LRRK2 G2019S, 1.3 mM ATP, 3 h at 30° C.; n≥2 tests
T2 construct: purchased Invitrogen (Life Technologies Corporation)
Procedure, shortened: as §2

[2] = Free fraction in plasma (equilibrium dialysis); type: in vitro ADME, male Sprague-Dawley rat; details: rat plasma, 1 μM, 5 h at 37° C.
Procedure, shortened: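 Equilibrium dialysis (12-14 kDa membrane) of male Sprague-Dawley rat or female Gottingen minipig plasma, or rat brain homogenate diluted 1:4, against 100 mM sodium phosphate pH 7.4, compound at 1 μM nominal (≤0.5% DMSO), 5 h at 37 °C. LC/MS-MS quantification; percent free calculated, with dilution factor 4 for brain.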

GSH adduct screening = type: in vitro ADME, human; details: 1 μM, 3 h at 37° C., HLM 0.5 mg/mL, NADPH, with and without GSH
Protocol: Test compounds (final concentration 1 μM, 0.25% organic) were incubated for 3 h at 37° C. in commercially sourced, pooled donor, human liver microsomes (HLM, final concentration 0.5 mg/mL) with and without addition of glutathione (GSH; final concentration […]). The metabolic reaction was initiated by addition of microsomal solution to the mixture of cofactor NADPH (final concentration 1 mM), test compound and GSH. After 3 h of incubation in a water bath at 37° C., the reaction was stopped by addition of 0.2% formic acid in acetonitrile, followed by mixing and centrifugation (16000 g for 5 minutes). Supernatant was diluted (1:1) with HPLC water then analyzed by liquid chromatography (LC)-quadrupole time-of-flight mass spectrometry (QTOF-MS). Accurate mass MS and MS/MS spectra from samples with GSH and without GSH, respectively, were compared to identify detectable GSH and/or cysteine related adducts.

[3] = Rat B/P (brain disposition); type: in vivo, male Sprague-Dawley rats; details: male, Sprague-Dawley; for concentration at 0.5 h / Kp uu at 0.5 h / Kp at 0.5 h: time point 0.5 h; for concentration at 0.5 h / Kp at 0.5 h / concentration at 1 h / Kp at 1 h: mean ± stdev; for Kp uu at 0.5 h / Kp at 0.5 h / Kp at 1 h / Kp uu at 1 h: brain/plasma; for Kp uu at 0.5 h / Kp uu at 1 h: fubrain from brain homogenate; for Kp at 0.5 h / Kp at 1 h: n = 3; for concentration at 1 h / Kp at 1 h / Kp uu at 1 h: time point 1.0 h
Procedure, shortened: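 Male Sprague-Dawley rats (n=3, standard body weight) were used to assess brain disposition. Plasma and brain homogenates underwent protein precipitation with acetonitrile containing internal standard, then LC-MS/MS measurement using an optimized method. Compound levels were quantified against matrix-matched calibration standards, and brain Kp was calculated as total brain concentration divided by total plasma concentration.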

[4] = Hepatocyte intrinsic clearance assay; type: in vitro ADME, human; details: human, pooled donor, cryopreserved hepatocytes, pH 7.4, 0.1 μM, 2 h at 37° C., 1×10^6 hepatocytes/mL; * measured on 3 separate occasions, ** on a single occasion
Protocol: as §1

[5] = brain, oral gavage 10 mg/kg, n = 3, read-out: Total brain concentration
[6] = plasma, oral gavage 10 mg/kg, n = 3, read-out: Total plasma concentration
[7] = po, 10 mg/kg, oral gavage 10 mg/kg

T2 sequence (Q5S007 970-2527 G2019S): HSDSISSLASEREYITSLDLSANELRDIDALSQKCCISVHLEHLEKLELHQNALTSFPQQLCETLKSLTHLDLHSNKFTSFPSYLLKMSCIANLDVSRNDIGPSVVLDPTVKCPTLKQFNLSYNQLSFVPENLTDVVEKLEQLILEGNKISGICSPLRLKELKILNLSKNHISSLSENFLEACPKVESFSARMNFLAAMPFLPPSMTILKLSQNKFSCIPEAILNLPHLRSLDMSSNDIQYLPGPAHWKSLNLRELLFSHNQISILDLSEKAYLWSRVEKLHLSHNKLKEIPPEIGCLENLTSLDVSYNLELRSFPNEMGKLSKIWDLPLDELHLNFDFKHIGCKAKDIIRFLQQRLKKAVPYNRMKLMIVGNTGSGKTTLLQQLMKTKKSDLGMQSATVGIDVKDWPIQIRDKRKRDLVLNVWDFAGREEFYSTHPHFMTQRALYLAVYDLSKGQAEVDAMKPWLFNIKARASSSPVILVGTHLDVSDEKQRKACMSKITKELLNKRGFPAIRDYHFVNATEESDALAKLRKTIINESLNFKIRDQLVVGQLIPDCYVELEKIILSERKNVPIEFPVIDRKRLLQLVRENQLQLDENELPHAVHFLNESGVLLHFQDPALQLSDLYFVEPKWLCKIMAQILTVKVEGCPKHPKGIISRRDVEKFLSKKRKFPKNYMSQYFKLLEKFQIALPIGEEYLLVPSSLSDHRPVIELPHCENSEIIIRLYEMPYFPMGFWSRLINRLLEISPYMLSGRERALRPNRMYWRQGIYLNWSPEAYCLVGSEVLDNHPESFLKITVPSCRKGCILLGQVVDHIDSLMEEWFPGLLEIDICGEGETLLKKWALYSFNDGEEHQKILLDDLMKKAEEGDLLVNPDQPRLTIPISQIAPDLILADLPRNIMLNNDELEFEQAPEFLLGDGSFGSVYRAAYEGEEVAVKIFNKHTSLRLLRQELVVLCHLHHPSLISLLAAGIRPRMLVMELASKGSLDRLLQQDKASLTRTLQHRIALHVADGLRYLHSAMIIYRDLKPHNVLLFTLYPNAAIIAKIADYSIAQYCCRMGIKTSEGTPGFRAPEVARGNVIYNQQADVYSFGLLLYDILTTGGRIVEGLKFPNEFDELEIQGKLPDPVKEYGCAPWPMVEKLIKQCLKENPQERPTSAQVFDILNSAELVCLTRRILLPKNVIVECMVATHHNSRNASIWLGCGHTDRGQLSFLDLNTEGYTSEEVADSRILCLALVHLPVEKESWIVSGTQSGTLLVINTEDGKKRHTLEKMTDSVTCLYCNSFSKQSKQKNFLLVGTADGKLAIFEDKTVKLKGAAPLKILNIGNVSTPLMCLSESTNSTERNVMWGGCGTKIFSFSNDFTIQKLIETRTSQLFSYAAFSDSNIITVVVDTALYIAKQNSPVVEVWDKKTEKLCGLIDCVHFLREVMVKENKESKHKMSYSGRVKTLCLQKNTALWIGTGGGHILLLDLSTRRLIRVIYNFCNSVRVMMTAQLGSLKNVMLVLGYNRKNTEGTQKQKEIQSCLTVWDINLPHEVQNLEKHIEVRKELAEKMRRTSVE
T1 sequence (Q5S007 970-2527): as the sequence (Q5S007 970-2527 G2019S) above, with S1050G counted along it

SMILES | CLint [1] [mL/min/kg] | IC50 (LRRK2 WT) [nM] | IC50 (LRRK2 G2019S) [nM] | fuplasma (% free) [2] [% free] | Adduct detected in GSH supplemented HLMs (GSH adduct screening) | also measured
[2H]C([2H])([2H])c1c2c(nn1[C@H]1CCCOCC1)OCCCn1nc(Cl)c3cnc(nc31)N2 (single isomer, unassigned) [Example 59, (−)-(R) or (S)-8-Chloro-3-(methyl-d3)-2-(oxepan-4-yl)-2,4,12,13-tetrahydro-11H-5,7-(azenometheno)dipyrazolo[3,4-b:5′,1′-g][1]oxa[4,6,8]triazacycloundecine] | 6.67 | 17 | 6.2 | – | – | –
Cc1c2c(nn1[C@@H]1CCO[C@H](C)C1)OCCCn1nc(Cl)c3cnc(nc31)N2 (single isomer, unassigned) [Example 19] | <4 | 13 | 3.9 | 24.0 | +GSH | concentration at 0.5 h [3, 5]: 1430 ± 134 ng/g; Kp uu at 0.5 h ([3]; oral gavage 10 mg/kg): 0.4 ± 0.04; Kp at 0.5 h ([3]; oral gavage 10 mg/kg): 1.28 ± 0.13; concentration at 0.5 h [3, 6]: 1140 ± 229 ng/mL
CO[C@H]1CC[C@H](n2nc3c(c2C)Nc2ncc4c(Cl)nn(c4n2)CCCO3)CC1 [Example 37, 8-Chloro-2-((1r,4r)-4-methoxycyclohexyl)-3-methyl-2,4,12,13-tetrahydro-11H-5,7-(azenometheno)dipyrazolo[3,4-b:5′,1′-g][1]oxa[4,6,8]triazacycloundecine] | – | 8.5 | 3.7 | 18.2 | +GSH | CLint scaled at 0.1 μM [4]: < 4 mL/min/kg; concentration at 0.5 h [3, 5]: 683 ± 139 ng/g; Kp at 0.5 h ([3]; oral gavage 10 mg/kg): 1.87 ± 0.76; Kp uu at 0.5 h [3, 7]: 0.47 ± 0.19; concentration at 0.5 h [3, 6]: 391 ± 96 ng/mL
[2H]C([2H])([2H])c1c2c(nn1[C@H]1CCO[C@@H](C)C1)OCCCn1nc(Cl)c3cnc(nc31)N2 (single isomer, unassigned) [Example 52, (−)-8-Chloro-3-(methyl-d3)-2-((2R,4R) or (2S,4S)-2-methyltetrahydro-2H-pyranyl)-2,4,12,13-tetrahydro-11H-5,7-(azenometheno)dipyrazolo[3,4-b:5′,1′-g][1]oxa[4,6,8]triazacycloundecine] | <4 | 19 | 10 | – | +GSH | –
Cc1c2c(nn1[C@@H]1CCOC[C@H]1F)OCCCn1nc(Cl)c3cnc(nc31)N2 (single isomer, unassigned) [Example 32, (+)-8-Chloro-2-((3S,4R) or (3R,4S)-3-fluorotetrahydro-2H-pyran-4-yl)-3-methyl-2,4,12,13-tetrahydro-11H-5,7-(azenometheno)dipyrazolo[3,4-b:5′,1′-g][1]oxa[4,6,8]triazacycloundecine] | <4 | 15 | 6.1 | – | – | –
[2H]C([2H])([2H])c1c2c(nn1[C@@H]1CCCOC1)OCCCn1nc(Cl)c3cnc(nc31)N2 (single isomer, unassigned) [Example 61, (R) or (S)-8-Chloro-3-(methyl-d3)-2-(tetrahydro-2H-pyran-3-yl)-2,4,12,13-tetrahydro-11H-5,7-(azenometheno)dipyrazolo[3,4-b:5′,1′-g][1]oxa[4,6,8]triazacycloundecine] | <4 | 34 | 10 | – | – | –
Cc1c2c(nn1[C@H]1CCCOC1)OCCCn1nc(Cl)c3cnc(nc31)N2 (single isomer, unassigned) [Example 3, (R) or (S)-8-Chloro-3-methyl-2-(tetrahydro-2H-pyran-3-yl)-2,4,12,13-tetrahydro-11H-5,7-(azenometheno)dipyrazolo[3,4-b:5′,1′-g][1]oxa[4,6,8]triazacycloundecine] | 5.5 | 9.2 | 2.2 | – | – | –
CCc1c2c(nn1C1CCOCC1)OCCCn1nc(Cl)c3cnc(nc31)N2 [Example 17, 8-Chloro-3-ethyl-2-(tetrahydro-2H-pyran-4-yl)-2,4,12,13-tetrahydro-11H-5,7-(azenometheno)dipyrazolo[3,4-b:5′,1′-g][1]oxa[4,6,8]triazacycloundecine] | – | 15 | 5.8 | 27.5 | did not form GSH adduct; also recorded: None detected | CLint scaled at 0.1 μM [4]: 5.67 mL/min/kg; concentration at 1 h [3, 5]: 1150 ± 59 ng/g; Kp at 1 h ([3]; oral gavage 10 mg/kg): 1.76 ± 0.08; Kp uu at 1 h [3, 7]: 0.59 ± 0.03; concentration at 1 h [3, 6]: 653 ± 52 ng/mL
[2H]C([2H])([2H])c1c2c(nn1[C@@H]1CCCOC1)OCCCn1nc(Cl)c3cnc(nc31)N2 (single isomer, unassigned) [Example 60, (R) or (S)-8-Chloro-3-(methyl-d3)-2-(tetrahydro-2H-pyran-3-yl)-2,4,12,13-tetrahydro-11H-5,7-(azenometheno)dipyrazolo[3,4-b:5′,1′-g][1]oxa[4,6,8]triazacycloundecine] | 8.5 | 25 | 9 | – | – | –
Cc1c2c(nn1[C@H]1CCCOC1)OCCCn1nc(Cl)c3cnc(nc31)N2 (single isomer, unassigned) [Example 4, (R) or (S)-8-Chloro-3-methyl-2-(tetrahydro-2H-pyran-3-yl)-2,4,12,13-tetrahydro-11H-5,7-(azenometheno)dipyrazolo[3,4-b:5′,1′-g][1]oxa[4,6,8]triazacycloundecine] | 14.5 | 12 | 2.8 | 25.3 | – | concentration at 1 h [3, 5]: 1360 ± 186 ng/g; Kp uu at 1 h ([3]; oral gavage 10 mg/kg): 0.42 ± 0.07; Kp at 1 h ([3]; oral gavage 10 mg/kg): 1.82 ± 0.33; concentration at 1 h [3, 6]: 758 ± 145 ng/mL
Cc1c2c(nn1[C@H]1CCCOCC1)OCCCn1nc(Cl)c3cnc(nc31)N2 (single isomer, unassigned) [Example 30, (+)-(R) or (S)-8-Chloro-3-methyl-2-(oxepan-4-yl)-2,4,12,13-tetrahydro-11H-5,7-(azenometheno)dipyrazolo[3,4-b:5′,1′-g][1]oxa[4,6,8]triazacycloundecine] | 10.5 | 12 | 4 | 26.5 | – | concentration at 1 h ([3]; brain, oral gavage 5 mg/kg, n = 3, read-out: Total brain concentration): 427 ± 96 ng/g; Kp uu at 1 h ([3]; oral gavage 5 mg/kg): 0.73 ± 0.06; Kp at 1 h ([3]; oral gavage 5 mg/kg): 2.05 ± 0.18; concentration at 1 h ([3]; plasma, oral gavage 5 mg/kg, n = 3, read-out: Total plasma concentration): 210 ± 50 ng/mL
